Measurements: patent publication US12595230B2, “Substituted 6,7-dihydro-5H-benzo[7]annulene compounds and their derivatives, processes for their preparation and therapeutic uses thereof” (Sanofi, priority 2020, dated 2026)

Target: T1, ERα (Homo sapiens, UniProt P03372)
T1 construct: host or cells: MCF7
T1 sequence (P03372 1-595): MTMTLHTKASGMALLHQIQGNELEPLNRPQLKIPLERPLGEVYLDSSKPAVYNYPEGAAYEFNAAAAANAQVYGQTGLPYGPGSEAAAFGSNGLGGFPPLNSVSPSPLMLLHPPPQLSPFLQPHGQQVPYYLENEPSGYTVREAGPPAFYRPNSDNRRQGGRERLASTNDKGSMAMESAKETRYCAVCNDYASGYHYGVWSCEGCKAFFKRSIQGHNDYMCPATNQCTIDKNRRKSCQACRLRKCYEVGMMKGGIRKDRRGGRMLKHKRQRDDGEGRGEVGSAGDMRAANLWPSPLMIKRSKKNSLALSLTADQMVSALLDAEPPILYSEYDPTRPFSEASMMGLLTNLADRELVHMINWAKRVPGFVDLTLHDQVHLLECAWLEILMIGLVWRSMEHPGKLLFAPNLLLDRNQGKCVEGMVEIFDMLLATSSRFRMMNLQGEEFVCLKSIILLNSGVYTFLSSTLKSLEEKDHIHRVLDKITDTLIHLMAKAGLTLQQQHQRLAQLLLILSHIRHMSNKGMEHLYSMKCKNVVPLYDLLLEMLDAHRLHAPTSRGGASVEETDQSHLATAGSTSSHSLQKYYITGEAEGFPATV
Assay: Estrogen receptor degradation activity: breast cancer cell ERα in cell western assay (MCF7 cells)
Format: cell-based
Conditions: for % Degradation At 0.3 μM: 4 hours, relative to fulvestrant 0.1 μM positive control; for DC50: 4 hours post compound addition, concentration which degrades 50% of the estrogen receptor, read-out: Degradation IC50
Outline: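 Compounds were applied to MCF7 cells in stripped-serum, phenol red-free medium for 4 h at final 0.3–0.0000018 μM, with fulvestrant (0.1 μM) as control. Value: IC50 (nM) for 50% ERα degradation.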

Row | SMILES | % Degradation At 0.3 μM | DC50
1 | Cc1c(Cl)cccc1C1=C(c2ccc(CC3CN(CCC(F)(F)F)C3)cc2)c2ccc(C(=O)O)cc2CCC1 [Example 260, 8-(3-chloro-2-methylphenyl)-9-(4-((1-(3,3,3-trifluoropropyl)azetidin-3-yl)methyl)phenyl)-6,7-dihydro-5H-benzo[7]annulene-3-carboxylic acid] | 86% | 0.6 nM
2 | O=C(O)c1ccc2c(c1)CCCC(c1ccc(Cl)cc1Cl)=C2c1ccc(CC2CN(CCC(F)(F)F)C2)cc1 [Example 261, 8-(2,4-dichlorophenyl)-9-(4-((1-(3,3,3-trifluoropropyl)azetidin-3-yl)methyl)phenyl)-6,7-dihydro-5H-benzo[7]annulene-3-carboxylic acid] | 89% | 0.8 nM
3 | Cl.O=C(O)c1ccc2c(c1)CCC(c1ccc(Cl)cc1Cl)=C2c1ccc(CC2CN(CCCF)C2)cc1 [Example 262, 6-(2,4-Dichlorophenyl)-5-(4-((1-(3-fluoropropyl)azetidin-3-yl)methyl)phenyl)-7,8-dihydronaphthalene-2-carboxylic Acid Hydrochloride] | 91% | 1.6 nM
4 | Cc1cc(Cl)ccc1C1=C(c2ccc(CC3CN(CCCF)C3)cc2)c2ccc(C(=O)O)cc2OCC1 [Example 263, 4-(4-chloro-2-methylphenyl)-5-(4-((1-(3-fluoropropyl)azetidin-3-yl)methyl)phenyl)-2,3-dihydrobenzo[b]oxepine-8-carboxylic acid] | 90% | 0.8 nM
5 | O=C([O-])c1ccc2c(c1)OCCC(c1ccc(F)cc1Cl)=C2c1ccc(CC2CN(CCCF)C2)cc1.[Na+] [Example 264, sodium 4-(2-chloro-4-fluorophenyl)-5-(4-((1-(3-fluoropropyl)azetidin-3-yl)methyl)phenyl)-2,3-dihydrobenzo[b]oxepine-8-carboxylate] | 95% | 1.1 nM
6 | Cc1ccc(C2=C(c3ccc(CC4CN(CCCF)C4)cc3)c3cc(F)c(O)c(F)c3CCC2)c(Cl)c1 [Example 265, 8-(2-chloro-4-methylphenyl)-2,4-difluoro-9-(4-((1-(3-fluoropropyl)azetidin-3-yl)methyl)phenyl)-6,7-dihydro-5H-benzo[7]annulen-3-ol] | 83% | 0.4 nM
7 | O=C(O)c1ccc2c(c1)CCCC(c1cc(F)cc(F)c1)=C2c1ccc(CC2CN(CCCF)C2)cc1 [Example 266, 8-(3,5-difluorophenyl)-9-(4-((1-(3-fluoropropyl)azetidin-3-yl)methyl)phenyl)-6,7-dihydro-5H-benzo[7]annulene-3-carboxylic acid] | 90% | 0.3 nM
8 | O=C(O)c1ccc2c(c1)CCCC(c1cc(F)c(F)c(F)c1)=C2c1ccc(CC2CN(CCCF)C2)cc1 [Example 267, 9-(4-((1-(3-fluoropropyl)azetidin-3-yl)methyl)phenyl)-8-(3,4,5-trifluorophenyl)-6,7-dihydro-5H-benzo[7]annulene-3-carboxylic acid] | 89% | 0.8 nM
9 | COc1nc(C(F)(F)F)ccc1C1=C(c2ccc(CC3CN(CCCF)C3)cc2)c2ccc(C(=O)O)cc2CCC1 [Example 268, 9-(4-((1-(3-fluoropropyl)azetidin-3-yl)methyl)phenyl)-8-(2-methoxy-6-(trifluoromethyl)pyridin-3-yl)-6,7-dihydro-5H-benzo[7]annulene-3-carboxylic acid] | 89% | 0.5 nM
10 | COc1c(C(=O)O)ccc2c1CCCC(c1ccc(F)cc1C)=C2c1ccc(CC2CN(CCCF)C2)cc1 [Example 269, 8-(4-fluoro-2-methylphenyl)-9-(4-((1-(3-fluoropropyl)azetidin-3-yl)methyl)phenyl)-4-methoxy-6,7-dihydro-5H-benzo[7]annulene-3-carboxylic acid] | 100% | 180 nM
11 | COc1c(C(=O)O)ccc2c1CCCC(c1ccc(F)cc1F)=C2c1ccc(CC2CN(CCCF)C2)cc1 [Example 270, 8-(2,4-difluorophenyl)-9-(4-((1-(3-fluoropropyl)azetidin-3-yl)methyl)phenyl)-4-methoxy-6,7-dihydro-5H-benzo[7]annulene-3-carboxylic acid] | 100% | 225 nM
12 | COc1c(C(=O)O)ccc2c1CCCC(c1ccc(Cl)cc1Cl)=C2c1ccc(CC2CN(CCCF)C2)cc1 [Example 271, 8-(2,4-dichlorophenyl)-9-(4-((1-(3-fluoropropyl)azetidin-3-yl)methyl)phenyl)-4-methoxy-6,7-dihydro-5H-benzo[7]annulene-3-carboxylic acid] | 83% | 16.2 nM
13 | O=C(O)c1ccc2c(c1)CCCC(c1ccc(F)cc1CC(F)(F)F)=C2c1ccc(CC2CN(CCCF)C2)cc1 [Example 272, 8-(4-fluoro-2-(2,2,2-trifluoroethyl)phenyl)-9-(4-((1-(3-fluoropropyl)azetidin-3-yl)methyl)phenyl)-6,7-dihydro-5H-benzo[7]annulene-3-carboxylic acid] | 90% | 0.6 nM
14 | O=C([O-])c1ccc2c(c1)CCCC(c1cc(C(F)F)ccc1F)=C2c1ccc(CC2CN(CCCF)C2)cc1.[Na+] [Example 273, sodium 8-(5-(difluoromethyl)-2-fluorophenyl)-9-(4-((1-(3-fluoropropyl)azetidin-3-yl)methyl)phenyl)-6,7-dihydro-5H-benzo[7]annulene-3-carboxylate] | 89% | 0.6 nM
15 | COc1cc(C2=C(c3ccc(CC4CN(CCCF)C4)cc3)c3ccc(C(=O)[O-])cc3CCC2)cc(C(F)(F)F)n1.[Na+] [Example 274, sodium 9-(4-((1-(3-fluoropropyl)azetidin-3-yl)methyl)phenyl)-8-(2-methoxy-6-(trifluoromethyl)pyridin-4-yl)-6,7-dihydro-5H-benzo[7]annulene-3-carboxylate] | 84% | 6.5 nM
16 | Cc1c(C2=C(c3ccc(CC4CN(CCC(F)F)C4)cc3)c3ccc(C(=O)O)cc3CCC2)ccc(F)c1F [Example 275, 8-(3,4-difluoro-2-methylphenyl)-9-(4-((1-(3,3-difluoropropyl)azetidin-3-yl)methyl)phenyl)-6,7-dihydro-5H-benzo[7]annulene-3-carboxylic acid] | 89% | 0.4 nM
17 | O=C(O)c1ccc2c(c1)CCCC(c1ccc(F)cc1C(F)(F)F)=C2c1ccc(CC2CN(CCC(F)F)C2)cc1 [Example 276, 9-(4-((1-(3,3-difluoropropyl)azetidin-3-yl)methyl)phenyl)-8-(4-fluoro-2-(trifluoromethyl)phenyl)-6,7-dihydro-5H-benzo[7]annulene-3-carboxylic acid] | 85% | 0.4 nM
18 | Cc1cccc(C2=C(c3ccc(CC4CN(CCC(F)F)C4)cc3)c3ccc(C(=O)O)cc3CCC2)c1Cl [Example 277, 8-(2-chloro-3-methylphenyl)-9-(4-((1-(3,3-difluoropropyl)azetidin-3-yl)methyl)phenyl)-6,7-dihydro-5H-benzo[7]annulene-3-carboxylic acid] | 82% | 0.3 nM
